Consider 2 compounds from patent publication US10111847B2, “Compounds and methods for modulating vascular injury” (The Regents of the University of California, priority 2012, dated 2018).

What all share (assay type): cell-based, human
For one experiment, the system named is NOX4. Nature of the experiment: TNFα induced NADPH-oxidase 4 expression, western blot. The following applies: 30 min pretreatment, TNFα 10 ng/ml 4 hr; sv-VSMCs. The procedure:
Mar-1. VSMCs and ECs were lysed in buffer (20 mM Tris-Hcl, 137 mM NaCl, 10% Glycerol, 1% NP-40) with protease and phosphatase inhibitors (Halt inhibitor capsules, Pierce, Inc) by sonication on ice. The lysates were instantly snap frozen in liquid nitrogen and thawed back later for western blotting. After centrifugation (15,000 g for 20 minutes), the whole cell extract (supernatant) was collected and was heated at 100° C. in Laemlli buffer for 6 minutes. Lysates were run on Mini-Protean TGX gels
(Biorad) and transferred on PVDF membranes which were probed with appropriate primary and secondary antibodies and visualized for quantitation using q-dot nanocrystals (Life Technologies, Inc).
NADPH oxidases (NOX) are the dominant source of superoxide generation in blood vessels and have been strongly implicated in vascular injury. NOX4 is a dominant isoform bound in VSMC and blood vessels. Regulation of NOX4 expression and activity therefore is of interest. Human sv-VSMCs were pretreated with 7S-Maresin-1 or vehicle for 30 min, followed by TNFα at 10 ng/ml for 4 hr. Whole cell lysates were blotted for NOX4 (Abcam Inc.) and beta-actin (Sigma).
FIG. 14. NOX4 and beta-actin western blotting image is representative of three independent experiments. Bar graph represents net quantitative densitometry analysis. N=3. […]
A general note: In western blotting, separated proteins are transferred to a membrane and probed.

The next experiment has as its system TNF-α-stimulated EC. As to the kind of experiment: U937 monocyte adhesion to TNF-α-stimulated EC (Maresin-1). The following applies: 1-100 nM, 30 min pretreatment; TNFα 1 ng/ml 4 hr. The procedure: MaR-1. VSMCs and ECs were seeded on a 96 well plate (20000 cells/well for VSMCs and 50000 cells/well for ECs) and after 2 days, were treated with Maresin-1 (1-100 nM) for 30 min followed by TNF-α for 4 hr and then calcein AM-labeled U937 cells were added on top of the VSMCs. After 15-minute incubation at 37 C, unbound cells were washed off with cold PBS. Fluorescence measurements (ex 494 nm, em 517 nm) of bound monocytes were taken with a plate reader. For capturing images, the assay was performed in 8-well chamber slides (Nunc Labtek) and images were taken after cold PBS wash (three times) following U937 incubation.
FIGS. 15A-15D. Representative images of Calcein-AM labeled U937 monocytes adhered to human sv-VSMCs pretreated with vehicle (A, B) or 7S-Maresin-1 (C) or 7S-Maresin-1 and pertussis toxin (D) for 30 min, followed by TNFα at 10 ng/ml for 4 hr (B, C, D). (E) Quantitative analysis of U937 adhesion assay in human sv-VSMCs and (F) human sv-ECs (1 ng/ml TNFα used for EC cells). […] Bar graph represents net quantitative densitometry analysis. […] Expression of MCP-1 was measured by qRT-PCR, and normalized to unstimulated cells (n=3, results are mean±SEM, P<0.05 for Mar-1 (10 and 100 nM) vs TNF alone, unpaired t-test).

For a further experiment, the system named is VSMC. Nature of the experiment: TNF-α-induced superoxide production (DHE) in VSMC (RvD1). The following applies: 10 and 100 nM; TNF-α 10 ng/ml 4 hours. The procedure:
RvD1. Cells are seeded and grown on chamber slides at a density of 10,000 cells per chamber for 2 days, followed by treatment with 10 ng/ml TNF-α with or without RvD1 (10 and 100 nM) in serum-free media for 4 hours. After incubation cells are incubated with DHE (5 μmol/L, Invitrogen) in PBS for 30 minutes at 37° C. in a humidified chamber protected from light. DAPI nuclear counter staining is utilized. For frozen section 30-μm-thick sections are incubated with DHE (10 μmol/L) in PBS for 30 minutes at the same condition described above. Fluorescence was detected with TRITC filter allowing the detection of the DHE emission wavelength of 590-620 nm. The fluorescence lamp gain is standardized for all images and analyses. Fluorescence quantitation is performed using ImageJ analysis software (National Institute of Health, Bethesda, Md.). For VSMC the fluorescence intensity is determined for the DHE-stained control cells (no treatment control) from each experimental group and then individual treated cells from the same group are normalized to the corresponding value. For frozen sections the fluorescence intensity is determined for the DHE-stained control vessels (uninjured abdominal aorta) from each experimental group and then individual treated vessels from the same group are normalized to the corresponding value. […]

For the compound `CC/C=C\C/C=C\C[C@H](O)\C=C/C=C/C=C/[C@@H](O)C/C=C\CCC(=O)O` [7S-Maresin-1, 7S,14R-dihydroxydocosa-4Z,8E,10Z,12Z,16Z,19Z-hexaenoic acid], the “TNFα induced NADPH-oxidase 4 expression” value in the experiment with NOX4 was “Attenuates”. The “monocyte adhesion (U937) to TNF-α-stimulated EC” value in the experiment on TNF-α-stimulated EC is given as “dose-dependent inhibition”.

With `CC/C=C\C[C@H](O)/C=C/C=C\C=C\C=C\[C@@H](O)[C@@H](O)C/C=C\CCC(=O)O` [RvD1, Resolvin D1], the “TNF-α-induced superoxide production in VSMC” value with VSMC is given as “significantly reduced”.
